# Laboratory results as given in US20230279072A1, “REGULATORY T CELL EPITOPES” (EpiVax Inc., priority 2020, published 2023).
# Entries after “also recorded” stand apart in the source; their conditions may differ.
# How the values were obtained:
# [1] = tested on: HLA-DRB1*0101, *0301, *0401, *0701, *1101, *1301 and *1501 alleles; experiment: In vitro HLA DRB1 binding assay, panel of seven alleles; design: species or system human; conditions: for breadth of binding to HLA DRB1 alleles: seven alleles
# Experimental: The six FV peptides were tested for in vitro binding to HLA-DRB1*0101, *0301, *0401, *0701, *1101, *1301 and *1501 alleles.
# [2] = tested on: CD4+ T cells in PBMCs from healthy donors; experiment: Tetanus Toxoid Bystander Suppression Assay (TTBSA); assay type: cell-based, human; conditions: for inhibition of the CD4+ T memory response / T effector proliferation in the TTBSA: PBMC from three HLA-diverse donors
# [3] = tested on: CD4+ effector memory T cells; experiment: Suppression of Tetanus Toxoid stimulated CD4+ effector T cells in PBMC; assay type: cell-based, human; design: CD4+ T cell activation reduced by: dose or concentration left out as unconfirmed
# Experimental: Previously harvested and frozen PBMC were thawed and suspended in conditioned chRPMI (3.3×10^6 cells/mL) by conventional means. Cells were stained with CFSE (Cat #: 65-0850-84, Affymetrix, Santa Clara, Calif.) and plated at 300,000 cells per well. Plates were incubated overnight (37° C. in 5% CO2). […] Previous titration experiments performed at EpiVax (EpiVax, Providence, R.I.) have established that stimulation with 0.5 μg/ml Tetanus Toxoid (TT) (Astarte Biologics, Bothell, Wash.) elicits a measurable CD4+ effector memory T cells response in PBMC drawn from healthy control donors (Rhode Island Blood Center, Providence, R.I.). Tetanus Toxoid stock (100 μg/mL) (Astarte Biologics, Bothell, Wash.) was diluted in conditioned chRPMI yielding a working concentration of 1 ug/mL. […] All plates were then incubated for six additional days. On assay day five, 100 μL of supernatant was removed from each well and replaced with freshly conditioned chRPMI.
# On assay day seven, cells were removed from incubation. Cells were labeled for live/dead discrimination, for surface markers CD127, CCR7, CD4, CD45RA, and CD25 and for intracellular FoxP3. Stained cells were further prepared for FACS analysis by conventional means. Cells were first gated to eliminate aggregates and dead cells. Live cells were gated for CD4 T cells and all subsequent analysis was done on this population. The activated Teffector population was identified as the CD4+/CD25-high/FoxP3-intermediate (CD4+/CD25^1/FoxP3int) (FIG. 8A).
# Proliferation of CD4+/CD25-high (CD4^+/CD25^hi) T cells was estimated from the dilution of the CFSE stain (Cat #: 65-0850-84, Affymetrix, Santa Clara, Calif.) and % proliferation determined by the CFSE-low (CFSEL^lo) population (FIG. 8B).
molecule,measurement,setting,value
G628H: FV621 with point mutation at TCR facing position G628H (glycine changed to histidine) (ILTIHFTHHSFIYGK),binding affinity to HLA DR alleles (in words),[1]; across the alleles tested,identical to FV621
same,suppressive capacity on TT-induced memory CD4 T cell proliferation relative to FV621,"[2]; point-mutated FV621 peptides, data not shown",significantly diminished suppressive capacity
CC[C@H](C)[C@H](NC(=O)[C@H](C)NC(=O)[C@H](Cc1c[nH]cn1)NC(=O)[C@H](Cc1ccccc1)NC(=O)[C@H](CCC(=O)O)NC(=O)[C@H](Cc1c[nH]cn1)NC(=O)[C@H](CO)NC(C)=O)C(=O)N[C@@H](CC(N)=O)C(=O)NCC(=O)N[C@@H](CCSC)C(=O)N[C@H](C(=O)N[C@@H](Cc1ccc(O)cc1)C(=O)N[C@@H](CO)C(=O)N[C@@H](CC(C)C)C(=O)N1CCC[C@H]1C(N)=O)[C@@H](C)CC [SEQ ID NO: 7],breadth of binding to HLA DRB1 alleles,[1],bind to multiple HLA DRB1 alleles
same,inhibition of the CD4+ T memory response / T effector proliferation in the TTBSA,[2],did not inhibit
IHSIHFSGHVFTVRK (listed as Homo sapiens) [SEQ ID NO: 2],proliferation of CD4+ T cells and activated T effector T cells,"[3]; 5, 10, 15, and 20 ug/ml, two donors",suppressed proliferation of CD4+ T cells and activated T effector T cells in a dose dependent manner
same,CD4+ T cell activation reduced by,"[3]; Donor 096, with TT",70%
same,CD4+ T cell activation reduced by,"[3]; Donor 120, with TT",50%
CC[C@H](C)[C@H](NC(=O)[C@H](CC(N)=O)NC(=O)[C@H](CO)NC(=O)[C@H](CCC(=O)O)NC(C)=O)C(=O)N[C@@H](CCSC)C(=O)N[C@@H](CO)C(=O)N[C@H](C(=O)N[C@H](C(=O)N[C@@H](CC(N)=O)C(=O)NCC(=O)N[C@@H](Cc1ccc(O)cc1)C(=O)N[C@H](C(=O)N1CCC[C@H]1C(=O)N[C@@H](CCC(=O)O)C(=O)N[C@@H](CO)C(N)=O)C(C)C)[C@@H](C)CC)[C@@H](C)O [SEQ ID NO: 5],breadth of binding to HLA DRB1 alleles,[1]; listed as FV582,somewhat more restricted in the breadth of binding; also recorded: more limited binding to HLA DR
same,inhibition of the CD4+ T memory response / T effector proliferation in the TTBSA,[2],did not inhibit
